Measurements published in ChEMBL document CHEMBL1201862, “PubChem BioAssay data set” (2004).
Active and inactive are the calls of the source. For most assays here, no stated cut-off is given here; in the data, actives have a measured EC50 and inactives only a lower limit.

What was measured:
[1] = target: T1, Heat shock factor protein 1 (Mus musculus, UniProt P38532); assay: HSF1 potentiators in luciferase reporter cells, confirmation, cell-based, NIH3T3, luminescence, dose retest (AID 435004); type: functional;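 further: stress induced by proteasome inhibitor MG132 added 30 min after compound; luciferase reporter driven by HSF1 response element in NIH3T3 cells; actives raise luminescence as potentiators of the MG132 stress response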
T1 sequence (P38532 whole entry): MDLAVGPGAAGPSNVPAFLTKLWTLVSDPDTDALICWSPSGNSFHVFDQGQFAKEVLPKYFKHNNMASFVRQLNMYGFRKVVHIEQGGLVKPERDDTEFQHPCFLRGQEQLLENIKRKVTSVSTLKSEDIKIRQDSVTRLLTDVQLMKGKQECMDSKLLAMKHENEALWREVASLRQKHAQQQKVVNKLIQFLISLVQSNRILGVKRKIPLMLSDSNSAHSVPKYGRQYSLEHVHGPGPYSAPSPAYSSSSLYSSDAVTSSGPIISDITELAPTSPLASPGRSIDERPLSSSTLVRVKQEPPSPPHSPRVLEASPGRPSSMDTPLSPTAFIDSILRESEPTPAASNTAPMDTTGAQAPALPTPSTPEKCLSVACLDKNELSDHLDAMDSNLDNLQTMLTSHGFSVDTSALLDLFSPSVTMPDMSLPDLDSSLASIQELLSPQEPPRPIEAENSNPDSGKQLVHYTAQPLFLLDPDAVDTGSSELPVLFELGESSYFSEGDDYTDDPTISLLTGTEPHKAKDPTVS

[2] = Luminescence Cell-Based Dose Response HTS to Identify Activators of Luciferase Translation or Activity in H4 […] Cells. [Related pubchem assays: 1829 (Project Summary), 1814 (Primary HTS)]; type: functional
[3] = Luminescence Cell-Based Dose Confirmation HTS to Identify Activators of 5'UTR Stem-Loop Driven Alpha-Synuclein mRNA Translation in H4 Neuroglioblastoma Cells. [Related pubchem assays: 1829 (Project Summary), 1814 (Primary HTS)]; type: functional
[4] = target: T2, Replicative DNA helicase DnaB (Mycobacterium tuberculosis, UniProt P9WMR3); assay: DnaB intein splicing inhibitors, dose response, biochemical, cell-free fluorescence (AID 449749); type: functional
T2 sequence (P9WMR3 whole entry): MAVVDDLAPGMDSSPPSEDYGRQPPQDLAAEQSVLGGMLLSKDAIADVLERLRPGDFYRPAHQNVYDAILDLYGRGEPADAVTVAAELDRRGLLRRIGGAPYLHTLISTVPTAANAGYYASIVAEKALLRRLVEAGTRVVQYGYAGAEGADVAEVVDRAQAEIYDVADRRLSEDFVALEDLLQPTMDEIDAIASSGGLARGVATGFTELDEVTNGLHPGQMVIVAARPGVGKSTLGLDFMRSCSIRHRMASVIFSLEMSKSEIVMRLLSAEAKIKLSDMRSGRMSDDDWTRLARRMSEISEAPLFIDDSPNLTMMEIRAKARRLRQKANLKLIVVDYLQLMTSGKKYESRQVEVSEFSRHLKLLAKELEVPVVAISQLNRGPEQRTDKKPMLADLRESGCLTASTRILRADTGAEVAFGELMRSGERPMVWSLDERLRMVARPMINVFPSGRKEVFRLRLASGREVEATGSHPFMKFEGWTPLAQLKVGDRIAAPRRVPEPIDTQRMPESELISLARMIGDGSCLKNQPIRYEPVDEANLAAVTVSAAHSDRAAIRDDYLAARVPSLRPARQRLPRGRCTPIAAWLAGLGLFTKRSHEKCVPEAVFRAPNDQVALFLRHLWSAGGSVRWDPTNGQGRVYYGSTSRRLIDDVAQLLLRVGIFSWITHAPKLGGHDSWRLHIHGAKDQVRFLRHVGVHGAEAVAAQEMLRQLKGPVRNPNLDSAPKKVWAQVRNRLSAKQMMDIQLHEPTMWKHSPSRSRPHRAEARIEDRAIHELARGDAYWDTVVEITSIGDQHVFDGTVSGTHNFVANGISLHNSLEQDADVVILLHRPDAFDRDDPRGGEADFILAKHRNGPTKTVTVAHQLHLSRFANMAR

Protein RecA = target: T3, Protein RecA (Mycobacterium tuberculosis, UniProt P9WHJ3); assay: Fluorescence Cell-Free Homogeneous Dose Retest to Identify Inhibitors of RecA-Intein Splicing Activity. [Related pubchem assays (depositor defined):AID2097, AID2223, AID489010, AID492950]; type: functional
T3 sequence (P9WHJ3 whole entry): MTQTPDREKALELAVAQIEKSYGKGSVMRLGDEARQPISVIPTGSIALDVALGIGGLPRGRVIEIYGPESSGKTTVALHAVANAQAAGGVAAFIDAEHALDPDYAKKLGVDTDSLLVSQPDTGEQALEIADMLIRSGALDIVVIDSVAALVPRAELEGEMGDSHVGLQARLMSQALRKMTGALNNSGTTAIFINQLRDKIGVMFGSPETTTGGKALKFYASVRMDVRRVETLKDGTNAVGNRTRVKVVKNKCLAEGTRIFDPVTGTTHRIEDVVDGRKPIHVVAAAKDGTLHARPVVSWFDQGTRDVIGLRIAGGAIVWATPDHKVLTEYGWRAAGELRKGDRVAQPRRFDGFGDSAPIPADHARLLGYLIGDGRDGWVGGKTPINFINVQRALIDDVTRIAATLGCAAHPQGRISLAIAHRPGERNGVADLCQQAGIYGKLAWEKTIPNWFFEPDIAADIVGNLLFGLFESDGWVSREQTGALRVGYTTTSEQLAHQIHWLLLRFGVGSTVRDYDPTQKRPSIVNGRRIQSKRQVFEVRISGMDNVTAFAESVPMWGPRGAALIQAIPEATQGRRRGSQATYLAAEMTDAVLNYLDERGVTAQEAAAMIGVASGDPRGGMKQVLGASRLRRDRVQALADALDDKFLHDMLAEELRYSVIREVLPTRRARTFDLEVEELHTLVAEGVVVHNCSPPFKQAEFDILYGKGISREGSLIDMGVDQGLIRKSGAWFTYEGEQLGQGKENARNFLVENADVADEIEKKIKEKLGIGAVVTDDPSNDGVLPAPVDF

H4 = assay: Luminescence Cell-Based Dose Response HTS to Identify Activators of 5'UTR Stem-Loop Driven Prion Protein mRNA Translation in H4 Neuroglioblastoma Cells. [Related pubchem assays: 1829 (Project Summary), 1814 (Primary HTS)]; type: functional; details: Homo sapiens
[5] = C. albicans growth with fluconazole, confirmation, fluorescence, retest (AID 2467); type: functional, cell-based
[6] = NIH-3T3 fibroblast cytotoxicity, dose response, cytotoxicity control, cell-based, fluorescence, Alamar Blue, secondary assay (AID 2327); type: functional;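 further: NIH-3T3 mouse fibroblasts cultured with fluconazole at 8 µg/mL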
[7] = target: T4, Rac GTPase-activating protein 1 (Homo sapiens, UniProt Q9H0H5); assay: MgcRacGAP GTPase-activating activity inhibitors, confirmation, biochemical, ADP Hunter fluorescence, primary and confirmatory (AID 624330); type: functional
T4 sequence (Q9H0H5 whole entry): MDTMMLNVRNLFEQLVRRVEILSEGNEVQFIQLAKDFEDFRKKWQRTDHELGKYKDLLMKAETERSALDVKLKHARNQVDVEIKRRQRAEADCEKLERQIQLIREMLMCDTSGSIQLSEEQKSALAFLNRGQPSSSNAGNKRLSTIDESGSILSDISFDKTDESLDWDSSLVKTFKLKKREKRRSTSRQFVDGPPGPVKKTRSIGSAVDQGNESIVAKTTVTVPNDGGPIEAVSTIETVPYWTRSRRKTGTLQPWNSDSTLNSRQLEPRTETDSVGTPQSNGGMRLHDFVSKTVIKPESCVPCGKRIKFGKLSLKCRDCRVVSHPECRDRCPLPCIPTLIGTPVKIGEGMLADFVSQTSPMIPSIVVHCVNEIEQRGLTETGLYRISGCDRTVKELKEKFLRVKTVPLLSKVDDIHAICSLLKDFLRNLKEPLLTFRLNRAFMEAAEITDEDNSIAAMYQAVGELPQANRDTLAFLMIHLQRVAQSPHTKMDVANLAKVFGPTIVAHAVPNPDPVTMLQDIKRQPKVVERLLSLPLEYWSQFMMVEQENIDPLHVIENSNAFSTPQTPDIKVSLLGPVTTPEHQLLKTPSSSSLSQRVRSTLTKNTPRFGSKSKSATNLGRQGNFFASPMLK

CC1(C)Cc2c(C#N)c(N3CCCC3)nc(-c3ccco3)c2CO1
EC50 [1]: > 260 µM (inactive)

O=C(NC1=NCCS1)c1ccc(-c2ccc(Cl)cc2)o1
EC50 [2]: 0.306 µM (active)
EC50 [3]: 21.4 µM (active)

Cc1ccc(-c2noc(-c3ccccc3C(=O)N3CCOCC3)n2)cc1
AC50 [4]: 196 µM (active)
EC50 (Protein RecA): > 380 µM (inactive)

COC(=O)Cc1ccc(NC(=O)c2ccc(C)c(C)c2)cc1
EC50 [1]: 69.4 µM (active)

CC(=O)c1cnc2nc(SCc3ccccc3)nn2c1C
EC50 [2]: 0.131 µM (inconclusive)
EC50 [3]: 0.116 µM (active)
EC50 (H4): 74.8 µM (active)

COc1cccc(C2=NO[C@@H]3C(=O)N(c4ccc5c(c4)OCCO5)C(=O)[C@H]23)c1OC
EC50 [2]: > 120 µM (not active)
EC50 [3]: > 120 µM (not active)
EC50 (H4): > 120 µM (not active)

CC(=O)C1=C(O)C(=O)N(c2ccc(Br)cn2)C1c1ccc(Br)cc1 (stereo unspecified)
EC50 [2]: 0.112 µM (active)
EC50 [3]: > 120 µM (not active)
EC50 (H4): 0.987 µM (active)

O=C(Nc1ccc2c(c1)C(=O)OC2)c1ccc(Cl)cc1
EC50 [1]: > 260 µM (inactive)

Cn1cc(CNC(=O)c2sc3cccc(Cl)c3c2Cl)cn1
EC50 [1]: > 260 µM (inactive)

Cc1nc(-c2ccc(S(=O)(=O)Oc3ccccc3Cl)s2)cs1
EC50 [2]: 12 µM (active)
EC50 [3]: 13 µM (active)
EC50 (H4): 2.84 µM (active)

O=C(NNc1ccc(Cl)cc1)c1c(F)cccc1Cl
EC50 [5]: > 38 µM (not active)
EC50 [6]: > 150 µM (inactive)

CCCCOc1ccc(CSc2nc[nH]n2)cc1
EC50 [1]: 106 µM (active)

COc1cc(C)c(Cl)c(C)c1S(=O)(=O)NC1CC(C)(C)NC(C)(C)C1
EC50 [2]: > 120 µM (not active)
EC50 [3]: 15.2 µM (active)
EC50 (H4): > 120 µM (not active)

CCCCN(C(=O)/C=C/c1ccco1)c1c(N)n(CCC)c(=O)[nH]c1=O
EC50 [1]: > 260 µM (inactive)

Nc1ccc(S(=O)(=O)Nc2nccc(/C=C/c3ccc(Cl)cc3Cl)n2)cc1
EC50 [2]: 13.6 µM (active)
EC50 [3]: > 120 µM (not active)
EC50 (H4): > 120 µM (not active)

CCc1nnc(NC(=O)C23CC4CC(CC(C4)C2)C3)s1
EC50 [2]: 45.6 µM (active)
EC50 [3]: 19 µM (active)
EC50 (H4): 8.2 µM (active)

CN(C)/C=C1\NC(=S)N(c2ccccc2)C1=O
IC50 [7]: 65.4 µM (active)

CCOC(=O)Cn1c(S(=O)(=O)Cc2ccc(F)cc2)nc(-c2ccccc2)c1-c1ccccc1
EC50 [1]: > 260 µM (inactive)

O=C(CN1CCN(c2ccc(O)cc2)CC1)Nc1ccc2c(c1)OCCCO2
IC50 [7]: 49.7 µM (active)

O=c1c2ccccc2cnn1CCOc1cccc(Br)c1
EC50 [2]: 33.9 µM (active)
EC50 [3]: 27.5 µM (active)
EC50 (H4): 6.06 µM (active)

Cc1cccc(C)c1N1CCN(S(=O)(=O)c2ccc(F)cc2)CC1
EC50 [1]: > 260 µM (inactive)

COc1ccc(-c2ccc(=O)n(CC(=O)Nc3cccc(O)c3)n2)cc1OC
EC50 [5]: > 38 µM (not active)
EC50 [6]: > 150 µM (inconclusive)

COC(=O)C1(O)CC(CC(C)C)=NN1C(=O)c1ccccc1 (stereo unspecified)
EC50 [1]: > 260 µM (inactive)

Cc1cc(O)ccc1Nc1nc(-c2cccnc2)cs1
EC50 [2]: 0.389 µM (active)
EC50 [3]: 7.92 µM (active)
EC50 (H4): 6.4 µM (active)

Cc1cc(C)nc(SC2=CS(=O)(=O)c3ccccc32)n1
EC50 [3]: 12.1 µM (active)
EC50 (H4): > 120 µM (not active)

CCOc1ccc(NC(=O)Cn2nnc(C(=O)NCc3ccco3)c2N)cc1
EC50 [1]: > 260 µM (inactive)

O=C(CN1CCCCC1)Nc1scc2c1c(=O)oc1ccccc12
EC50 [2]: 16.1 µM (active)
EC50 [3]: > 120 µM (not active)
EC50 (H4): 59.7 µM (active)

COc1ccc2c(c1)C(=C(C#N)C#N)C(=O)N2CCc1ccccc1
AC50 [4]: 3.97 µM (active)
EC50 (Protein RecA): 21.2 µM (active)

CCN1CCN(CCCOc2ccccc2-c2ccccc2)CC1
IC50 [7]: 96.9 µM (active)

CCOC(=O)C(CCOc1cccc(CC)c1)C(=O)OCC
EC50 [1]: 59.6 µM (active)

COc1ccc(-c2c(C)nn3c(Cl)c(C)c(C)nc23)cc1
EC50 [1]: 108 µM (active)

CC1=C(C(=O)N2CCOCC2)C(c2c(C)cc(C)cc2C)NC(S)=N1 (stereo unspecified)
EC50 [1]: > 260 µM (inactive)

Cn1ccc(C(=O)N/N=C/c2ccncc2)n1
EC50 [1]: > 260 µM (inactive)

COc1cc(/C=N/NC(=O)c2cc[n+]([O-])cc2)ccc1O
IC50 [7]: 32.7 µM (active)

C/C(CC(=O)Nc1ccccc1[N+](=O)[O-])=N\NC(=O)COc1ccccc1C
AC50 [4]: 10.5 µM (active)
EC50 (Protein RecA): 3.85 µM (active)

CN1CCN(/N=C/c2nc(-c3ccc(Cl)cc3)n3ccccc23)CC1
IC50 [7]: 27.1 µM (active)

CC1(C)Cc2c(C#N)c(N)n(-c3ccccc3)c(=S)c2CO1
EC50 [1]: > 260 µM (inactive)

Cc1ccc(NC(=O)CSc2nnc([C@@H](N)Cc3c[nH]c4ccccc34)o2)c(C)c1
EC50 [5]: > 38 µM (not active)
EC50 [6]: > 150 µM (inactive)
